Assays:
[1] = biological target: T1, Bromodomain-containing protein 4 (Homo sapiens, UniProt O60885); test: Binding affinity to human BRD4 bromodomain 1 assessed as residual activity at 300 nM by BROMOscan method relative to control
[2] = biological target: T2, ATPase family AAA domain-containing protein 2 (Homo sapiens, UniProt Q6PL18); test: Displacement of Halo-tagged Histone H3.3 from Nanoluc-ATAD2 BD (962 to 1119 residues) (unknown origin) transfected in human HCT116 cells incubated for 18 hrs in presence of efflux inhibitor reversan by NanoBRET assay; assay type: cell-based, HCT-116
T2 sequence (Q6PL18 whole entry): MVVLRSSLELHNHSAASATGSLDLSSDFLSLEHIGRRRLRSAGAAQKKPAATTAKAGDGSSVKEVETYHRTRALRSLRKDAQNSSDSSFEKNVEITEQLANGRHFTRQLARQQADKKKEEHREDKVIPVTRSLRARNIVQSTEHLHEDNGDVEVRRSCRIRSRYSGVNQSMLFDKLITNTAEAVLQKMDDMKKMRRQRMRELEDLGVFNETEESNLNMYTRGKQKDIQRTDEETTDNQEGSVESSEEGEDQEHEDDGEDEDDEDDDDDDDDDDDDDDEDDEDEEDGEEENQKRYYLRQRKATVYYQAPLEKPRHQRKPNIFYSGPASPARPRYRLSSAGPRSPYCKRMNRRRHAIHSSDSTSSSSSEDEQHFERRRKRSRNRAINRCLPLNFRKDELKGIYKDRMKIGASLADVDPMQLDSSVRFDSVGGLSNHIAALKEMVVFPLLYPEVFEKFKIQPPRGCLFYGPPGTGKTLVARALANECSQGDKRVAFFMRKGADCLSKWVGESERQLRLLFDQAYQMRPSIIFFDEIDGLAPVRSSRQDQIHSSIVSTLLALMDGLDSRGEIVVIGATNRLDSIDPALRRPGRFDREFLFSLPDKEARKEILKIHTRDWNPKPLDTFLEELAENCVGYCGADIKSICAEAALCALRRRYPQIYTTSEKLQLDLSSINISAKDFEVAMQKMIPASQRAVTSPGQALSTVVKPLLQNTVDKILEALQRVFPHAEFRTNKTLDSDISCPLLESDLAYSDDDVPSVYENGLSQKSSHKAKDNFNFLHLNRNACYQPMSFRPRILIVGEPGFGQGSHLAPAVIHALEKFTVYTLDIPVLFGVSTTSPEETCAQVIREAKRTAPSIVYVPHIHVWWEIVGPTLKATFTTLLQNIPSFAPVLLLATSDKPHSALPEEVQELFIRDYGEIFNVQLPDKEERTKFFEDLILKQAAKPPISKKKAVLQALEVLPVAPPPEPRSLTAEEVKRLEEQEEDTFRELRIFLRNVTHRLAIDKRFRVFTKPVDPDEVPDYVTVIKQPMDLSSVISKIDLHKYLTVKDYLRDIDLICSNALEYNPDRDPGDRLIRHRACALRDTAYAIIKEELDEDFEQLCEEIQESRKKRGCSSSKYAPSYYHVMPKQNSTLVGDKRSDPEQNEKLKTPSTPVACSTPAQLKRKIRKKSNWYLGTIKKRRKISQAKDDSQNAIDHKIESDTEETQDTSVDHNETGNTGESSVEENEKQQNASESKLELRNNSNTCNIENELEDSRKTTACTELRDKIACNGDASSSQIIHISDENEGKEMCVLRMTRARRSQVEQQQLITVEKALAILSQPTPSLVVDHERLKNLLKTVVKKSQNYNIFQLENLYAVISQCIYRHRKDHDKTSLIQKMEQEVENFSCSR

[3] = biological target: T2, ATPase family AAA domain-containing protein 2; test: Displacement of Halo-tagged Histone H3.3 from Nanoluc-ATAD2 BD (962 to 1119 residues) (unknown origin) transfected in human HCT116 cells incubated for 18 hrs in presence of efflux inhibitor verapamil by NanoBRET assay; assay type: cell-based, HCT-116
[4] = biological target: Bromodomain adjacent to zinc finger domain protein 2B (Homo sapiens) (UniProt Q9UIF8); test: Binding affinity to human BAZ2B bromodomain assessed as residual activity at 300 nM by BROMOscan method relative to control
[5] = biological target: Bromodomain-containing protein 3 (Homo sapiens, UniProt Q15059); test: Binding affinity to human BRD3 bromodomain 2 assessed as residual activity at 300 nM by BROMOscan method relative to control
[6] = biological target: T1, Bromodomain-containing protein 4; test: Binding affinity to human BRD4 bromodomain 2 assessed as residual activity at 300 nM by BROMOscan method relative to control
[7] = biological target: Bromodomain-containing protein 9 (Homo sapiens) (UniProt Q9H8M2); test: Binding affinity to human BRD9 bromodomain assessed as residual activity at 300 nM by BROMOscan method relative to control
[8] = biological target: Bromodomain and PHD finger-containing protein 3 (Homo sapiens) (UniProt Q9ULD4); test: Binding affinity to human […] bromodomain assessed as residual activity at 300 nM by BROMOscan method relative to control
[9] = biological target: Histone acetyltransferase p300 (Homo sapiens, UniProt Q09472); test: Binding affinity to human EP300 bromodomain assessed as residual activity at 300 nM by BROMOscan method relative to control
[10] = biological target: T3, Transcription initiation factor TFIID subunit 1 (Homo sapiens, UniProt P21675); test: Binding affinity to human TAF1 bromodomain 2 assessed as residual activity at 300 nM by BROMOscan method relative to control
[11] = biological target: Transcription initiation factor TFIID subunit 1-like (Homo sapiens) (UniProt Q8IZX4); test: Binding affinity to human TAF1L bromodomain 2 assessed as residual activity at 300 nM by BROMOscan method relative to control
[12] = biological target: Transcription intermediary factor 1-alpha (Homo sapiens) (UniProt O15164); test: Binding affinity to human TRIM24 bromodomain assessed as residual activity at 300 nM by BROMOscan method relative to control
[13] = biological target: E3 ubiquitin-protein ligase TRIM33 (Homo sapiens) (UniProt Q9UPN9); test: Binding affinity to human TRIM33 bromodomain assessed as residual activity at 300 nM by BROMOscan method relative to control
[14] = biological target: Bromodomain-containing protein 2 (Homo sapiens, UniProt P25440); test: Binding affinity to human BRD2 bromodomain 1 assessed as dissociation constant by BROMOscan method
[15] = biological target: Bromodomain-containing protein 9 (Homo sapiens, UniProt Q9H8M2); test: Binding affinity to human BRD9 bromodomain by BROMOscan method
[16] = biological target: Nucleosome-remodeling factor subunit BPTF (Homo sapiens, UniProt Q12830); test: Binding affinity to human FALZ bromodomain by BROMOscan method
[17] = biological target: SWI/SNF-related matrix-associated actin-dependent regulator of chromatin subfamily A member 2 (Homo sapiens, UniProt P51531); test: Binding affinity to human SMARCA2 bromodomain assessed as dissociation constant by BROMOscan method
[18] = biological target: T3, Transcription initiation factor TFIID subunit 1; test: Binding affinity to human TAF1 bromodomain 2 assessed as dissociation constant by BROMOscan method
[19] = biological target: Bromodomain and WD repeat-containing protein 1 (Homo sapiens, UniProt Q9NSI6); test: Binding affinity to human WDR9 bromodomain 2 assessed as dissociation constant by BROMOscan method

T3 sequence (P21675 whole entry): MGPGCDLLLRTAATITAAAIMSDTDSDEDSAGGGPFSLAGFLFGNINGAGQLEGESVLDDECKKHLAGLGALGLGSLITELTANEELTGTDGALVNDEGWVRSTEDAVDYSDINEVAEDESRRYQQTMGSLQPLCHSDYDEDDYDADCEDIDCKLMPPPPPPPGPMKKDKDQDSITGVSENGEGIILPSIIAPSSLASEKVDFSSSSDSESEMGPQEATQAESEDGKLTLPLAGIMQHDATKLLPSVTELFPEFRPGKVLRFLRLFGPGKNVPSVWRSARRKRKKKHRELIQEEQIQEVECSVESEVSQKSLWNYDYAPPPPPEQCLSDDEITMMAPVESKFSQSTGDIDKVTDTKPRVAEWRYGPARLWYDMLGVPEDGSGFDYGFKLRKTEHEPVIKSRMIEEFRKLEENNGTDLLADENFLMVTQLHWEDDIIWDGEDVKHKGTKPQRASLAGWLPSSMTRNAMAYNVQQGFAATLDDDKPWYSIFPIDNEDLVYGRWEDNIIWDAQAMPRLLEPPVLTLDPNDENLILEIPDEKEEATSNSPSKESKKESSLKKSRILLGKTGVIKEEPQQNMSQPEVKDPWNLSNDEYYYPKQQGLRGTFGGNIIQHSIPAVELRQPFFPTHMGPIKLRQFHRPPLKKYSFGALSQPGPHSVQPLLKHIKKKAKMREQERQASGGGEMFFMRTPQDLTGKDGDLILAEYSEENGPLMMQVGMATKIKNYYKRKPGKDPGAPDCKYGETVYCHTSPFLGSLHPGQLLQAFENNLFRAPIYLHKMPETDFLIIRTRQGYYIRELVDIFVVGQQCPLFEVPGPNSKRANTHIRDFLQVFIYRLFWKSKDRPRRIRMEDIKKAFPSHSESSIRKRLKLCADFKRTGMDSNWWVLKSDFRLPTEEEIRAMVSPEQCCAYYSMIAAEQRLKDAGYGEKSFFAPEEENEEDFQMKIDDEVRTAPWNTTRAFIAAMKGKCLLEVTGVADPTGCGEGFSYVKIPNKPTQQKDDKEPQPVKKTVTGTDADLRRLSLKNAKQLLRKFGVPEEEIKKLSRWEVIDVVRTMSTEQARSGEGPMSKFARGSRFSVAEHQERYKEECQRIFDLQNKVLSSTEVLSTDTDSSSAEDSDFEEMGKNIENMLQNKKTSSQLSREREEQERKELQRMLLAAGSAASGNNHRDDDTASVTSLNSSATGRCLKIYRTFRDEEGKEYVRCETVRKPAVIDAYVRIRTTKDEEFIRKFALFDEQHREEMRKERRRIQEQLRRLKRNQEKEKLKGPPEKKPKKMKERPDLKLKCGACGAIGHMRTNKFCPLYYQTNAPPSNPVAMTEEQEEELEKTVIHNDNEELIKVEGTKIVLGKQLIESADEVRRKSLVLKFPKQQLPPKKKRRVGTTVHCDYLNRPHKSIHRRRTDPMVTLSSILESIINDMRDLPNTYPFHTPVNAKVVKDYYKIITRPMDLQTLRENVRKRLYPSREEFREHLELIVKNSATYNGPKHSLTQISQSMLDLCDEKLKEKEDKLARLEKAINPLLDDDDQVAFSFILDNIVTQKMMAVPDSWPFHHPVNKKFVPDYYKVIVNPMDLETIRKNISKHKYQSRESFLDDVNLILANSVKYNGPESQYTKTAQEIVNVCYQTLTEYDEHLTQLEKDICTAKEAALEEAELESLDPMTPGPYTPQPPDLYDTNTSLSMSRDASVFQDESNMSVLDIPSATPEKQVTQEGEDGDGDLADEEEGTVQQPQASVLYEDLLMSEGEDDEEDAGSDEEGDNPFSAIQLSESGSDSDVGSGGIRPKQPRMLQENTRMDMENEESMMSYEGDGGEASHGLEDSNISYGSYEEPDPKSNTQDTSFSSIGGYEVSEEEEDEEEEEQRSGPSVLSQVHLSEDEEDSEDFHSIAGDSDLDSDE
Chain of Bromodomain-containing protein 3 (Q15059 2-726 limits assumed): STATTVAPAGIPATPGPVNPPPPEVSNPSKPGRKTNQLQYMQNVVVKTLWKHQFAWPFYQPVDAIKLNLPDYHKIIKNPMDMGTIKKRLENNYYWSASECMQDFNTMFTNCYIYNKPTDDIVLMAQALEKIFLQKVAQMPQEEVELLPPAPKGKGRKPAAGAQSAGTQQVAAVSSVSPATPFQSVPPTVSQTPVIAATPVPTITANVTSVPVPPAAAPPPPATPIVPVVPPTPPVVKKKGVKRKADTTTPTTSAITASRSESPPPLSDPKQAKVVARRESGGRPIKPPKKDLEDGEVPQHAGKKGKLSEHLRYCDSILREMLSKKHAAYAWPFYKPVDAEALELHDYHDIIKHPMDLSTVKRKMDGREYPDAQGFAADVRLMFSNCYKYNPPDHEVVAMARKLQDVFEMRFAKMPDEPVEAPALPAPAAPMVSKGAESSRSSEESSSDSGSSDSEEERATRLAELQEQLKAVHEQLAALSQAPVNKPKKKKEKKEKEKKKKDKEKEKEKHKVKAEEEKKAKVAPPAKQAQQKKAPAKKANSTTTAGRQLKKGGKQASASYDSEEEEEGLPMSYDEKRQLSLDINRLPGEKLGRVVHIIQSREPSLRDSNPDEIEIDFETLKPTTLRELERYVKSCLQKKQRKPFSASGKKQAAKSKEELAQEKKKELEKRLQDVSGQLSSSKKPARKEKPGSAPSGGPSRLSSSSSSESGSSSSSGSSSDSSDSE
Chain of Transcription initiation factor TFIID subunit 1-like (Homo sapiens) (Q8IZX4 whole entry): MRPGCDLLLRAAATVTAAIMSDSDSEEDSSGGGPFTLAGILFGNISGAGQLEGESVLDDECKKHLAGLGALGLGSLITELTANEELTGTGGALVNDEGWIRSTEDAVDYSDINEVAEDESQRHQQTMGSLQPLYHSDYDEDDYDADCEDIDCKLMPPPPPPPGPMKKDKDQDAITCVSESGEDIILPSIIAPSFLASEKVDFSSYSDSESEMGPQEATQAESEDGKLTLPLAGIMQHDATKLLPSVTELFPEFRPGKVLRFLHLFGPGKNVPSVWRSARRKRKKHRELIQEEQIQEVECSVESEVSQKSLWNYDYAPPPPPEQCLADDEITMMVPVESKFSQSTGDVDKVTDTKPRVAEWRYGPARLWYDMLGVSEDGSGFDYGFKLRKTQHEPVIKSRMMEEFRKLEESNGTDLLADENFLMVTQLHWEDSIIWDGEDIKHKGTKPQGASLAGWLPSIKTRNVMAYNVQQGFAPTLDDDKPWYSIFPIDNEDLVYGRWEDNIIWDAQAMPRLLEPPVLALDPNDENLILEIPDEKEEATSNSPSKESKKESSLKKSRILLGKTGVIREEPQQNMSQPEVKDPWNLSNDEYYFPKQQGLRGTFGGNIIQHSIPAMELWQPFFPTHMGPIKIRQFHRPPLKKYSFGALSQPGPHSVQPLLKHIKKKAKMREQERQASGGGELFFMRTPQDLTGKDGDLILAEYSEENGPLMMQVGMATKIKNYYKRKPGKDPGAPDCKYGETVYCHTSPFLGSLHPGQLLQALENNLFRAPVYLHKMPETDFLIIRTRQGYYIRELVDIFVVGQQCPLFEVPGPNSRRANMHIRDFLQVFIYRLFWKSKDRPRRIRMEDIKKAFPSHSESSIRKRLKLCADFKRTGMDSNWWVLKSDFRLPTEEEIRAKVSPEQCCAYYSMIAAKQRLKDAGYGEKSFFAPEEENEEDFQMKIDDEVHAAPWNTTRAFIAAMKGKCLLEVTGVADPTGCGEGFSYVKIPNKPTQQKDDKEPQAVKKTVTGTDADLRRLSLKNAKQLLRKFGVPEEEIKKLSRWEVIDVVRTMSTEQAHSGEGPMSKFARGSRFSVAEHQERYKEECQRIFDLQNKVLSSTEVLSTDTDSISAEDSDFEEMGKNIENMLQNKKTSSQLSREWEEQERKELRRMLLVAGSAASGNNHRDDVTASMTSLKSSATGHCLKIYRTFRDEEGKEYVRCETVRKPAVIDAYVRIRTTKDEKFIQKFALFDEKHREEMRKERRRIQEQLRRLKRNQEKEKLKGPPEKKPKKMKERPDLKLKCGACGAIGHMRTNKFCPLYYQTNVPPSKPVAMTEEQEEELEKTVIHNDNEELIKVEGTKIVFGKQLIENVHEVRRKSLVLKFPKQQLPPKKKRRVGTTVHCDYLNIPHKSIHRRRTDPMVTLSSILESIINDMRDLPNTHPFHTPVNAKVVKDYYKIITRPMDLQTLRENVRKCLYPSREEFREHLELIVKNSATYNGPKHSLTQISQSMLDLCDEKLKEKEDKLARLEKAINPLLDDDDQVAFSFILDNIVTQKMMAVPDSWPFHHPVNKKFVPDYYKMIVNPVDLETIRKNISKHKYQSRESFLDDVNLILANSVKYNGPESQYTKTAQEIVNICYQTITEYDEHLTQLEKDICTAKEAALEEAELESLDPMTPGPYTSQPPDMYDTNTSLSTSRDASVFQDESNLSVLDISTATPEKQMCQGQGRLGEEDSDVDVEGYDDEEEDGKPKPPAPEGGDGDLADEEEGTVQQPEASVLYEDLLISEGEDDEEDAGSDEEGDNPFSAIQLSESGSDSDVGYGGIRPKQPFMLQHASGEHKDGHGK
Chain of Bromodomain-containing protein 9 (Homo sapiens) (Q9H8M2 whole entry): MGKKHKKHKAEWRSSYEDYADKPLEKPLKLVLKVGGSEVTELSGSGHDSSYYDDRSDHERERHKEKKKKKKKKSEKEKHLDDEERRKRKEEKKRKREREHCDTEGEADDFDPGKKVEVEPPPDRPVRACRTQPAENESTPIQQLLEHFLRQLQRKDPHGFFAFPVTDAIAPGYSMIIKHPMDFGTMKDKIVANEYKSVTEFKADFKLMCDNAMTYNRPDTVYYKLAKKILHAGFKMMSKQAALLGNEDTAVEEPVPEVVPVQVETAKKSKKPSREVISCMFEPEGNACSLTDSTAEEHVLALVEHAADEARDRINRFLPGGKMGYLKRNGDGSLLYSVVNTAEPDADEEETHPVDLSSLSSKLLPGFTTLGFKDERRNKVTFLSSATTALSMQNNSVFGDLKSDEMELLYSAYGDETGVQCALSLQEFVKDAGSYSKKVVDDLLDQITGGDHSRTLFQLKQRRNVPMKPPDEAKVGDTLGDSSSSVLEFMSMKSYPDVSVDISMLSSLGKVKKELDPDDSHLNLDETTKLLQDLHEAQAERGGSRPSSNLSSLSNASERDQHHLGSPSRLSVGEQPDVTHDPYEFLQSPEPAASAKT
Chain of Bromodomain-containing protein 9 (Q9H8M2 whole entry): as above

Activity [1]: 86% | IC50 [2]: 79.4 nM | IC50 [3]: 50.1 nM | Activity [4]: 75% | Activity [5]: 56% | Activity [6]: 73% | Activity [7]: 64% | Activity [8]: 66% | Activity [9]: 41% | Activity [10]: 44% | Activity [11]: 82% | Activity [12]: 86% | Activity [13]: 96% | Kd [14]: 126 nM | Kd [15]: > 316 nM | Kd [16]: > 316 nM | Kd [17]: > 3160 nM | Kd [18]: 158 nM | Kd [19]: > 316 nM
Structure (SMILES): Cc1nnc2c(NC3CCN(CC(C)(C)F)CC3)cc(C(=O)N3[C@@H]4c5ccccc5C[C@H]3C(=O)N[C@@H]4C(C)C)nn12
